# Like-named read-outs stand apart in the source and are kept apart here.
# Tests used:
# [1] = test system: A. baumannii 10591; test: MIC/MBC antimicrobial assay; assay type: cell-based, Acinetobacter baumannii; details: for MBC: A. baumannii 10591 wild strain, triplicate, two independent experiments
# Experimental: (§1) Bacterial cells Acinetobacter baumannii 10591 and 14B0091 were obtained from BCRC Taiwan. All the MDR strains were obtained from the hospital as gifts. The antimicrobial assay was performed as per the standard protocol; 50 µL of 10^6 CFU/mL of mid-log phase bacterial suspension was treated with 50 µL of candidate peptide and meropenem (Sigma: PHR1772) incubated at 37 °C for 960~1200 min. The clear wells corresponding to the lowest concentrations are reported as the minimum inhibitory concentration (MIC). Suspensions from the clear wells were plated on Mueller–Hinton agar (MHA) plates and incubated at 37 °C overnight. The lowest concentration corresponding to no growth was recorded as the minimum bactericidal concentration (MBC). To detect the effect of human serum (H3667, Sigma Aldrich, St. Louis, MO, USA) on the peptides, the media was replaced with 50% human serum-containing media. Similarly, to detect the effect of lung surfactant (SURVANTA®, beractant, AbbVie Inc., Lake Bluff, IL, USA (25 mg/mL)) on the antimicrobial activity of the peptide, the normal media was replaced with 5% lung surfactant-containing media. To analyse the bacterial killing kinetics, after the addition of the peptide to the bacterial suspension, 10 µL of broth was diluted 1000 times, plated at 30 min intervals, and allowed to incubate for 90 min. The bacterial load is expressed as CFU/mL as a function of time.
# [2] = test system: MDR A. baumannii 14B0091; test: MIC/MBC antimicrobial assay; assay type: cell-based, Acinetobacter baumannii; details: MDR strain 14B0091, triplicate, two independent experiments
# Experimental: as §1
# [3] = test system: MDR A. baumannii 1019; test: MIC/MBC antimicrobial assay; assay type: cell-based; details: Acinetobacter baumannii; MDR strain 1019; normal media; triplicate, two independent experiments
# Experimental: as §1
# [4] = test system: MDR A. baumannii 1033; test: MIC/MBC antimicrobial assay; assay type: cell-based; details: Acinetobacter baumannii; MDR strain 1033; normal media; triplicate, two independent experiments
# Experimental: as §1
# [5] = test system: MDR A. baumannii 1607; test: MIC/MBC antimicrobial assay; assay type: cell-based; details: Acinetobacter baumannii; MDR strain 1607; normal media; triplicate, two independent experiments
# Experimental: as §1
# [6] = test system: MDR A. baumannii 1702; test: MIC/MBC antimicrobial assay; assay type: cell-based; details: Acinetobacter baumannii; MDR strain 1702; normal media; triplicate, two independent experiments
# Experimental: as §1
# [7] = test system: MDR A. baumannii 2088; test: MIC/MBC antimicrobial assay; assay type: cell-based; details: Acinetobacter baumannii; MDR strain 2088; normal media; triplicate, two independent experiments
# Experimental: as §1
# [8] = test system: MDR A. baumannii 2962; test: MIC/MBC antimicrobial assay; assay type: cell-based; details: Acinetobacter baumannii; MDR strain 2962; normal media; triplicate, two independent experiments
# Experimental: as §1
# [9] = test system: MDR A. baumannii 2982; test: MIC/MBC antimicrobial assay; assay type: cell-based; details: Acinetobacter baumannii; MDR strain 2982; normal media; triplicate, two independent experiments
# Experimental: as §1
# [10] = test system: MDR A. baumannii 2997; test: MIC/MBC antimicrobial assay; assay type: cell-based; details: Acinetobacter baumannii; MDR strain 2997; normal media; triplicate, two independent experiments
# Experimental: as §1
# [11] = test system: MDR A. baumannii 2998; test: MIC/MBC antimicrobial assay; assay type: cell-based; details: Acinetobacter baumannii; MDR strain 2998; normal media; triplicate, two independent experiments
# Experimental: as §1
# [12] = test system: MDR A. baumannii 3618; test: MIC/MBC antimicrobial assay; assay type: cell-based; details: Acinetobacter baumannii; MDR strain 3618; normal media; triplicate, two independent experiments
# Experimental: as §1
# [13] = test system: MDR A. baumannii 921; test: MIC/MBC antimicrobial assay; assay type: cell-based; details: Acinetobacter baumannii; MDR strain 921; normal media; triplicate, two independent experiments
# Experimental: as §1
# [14] = test system: A. baumannii; test: Peptide sensitivity to temperature (MIC/MBC after heating); assay type: cell-based, Acinetobacter baumannii
# Experimental: as §1
# Here, 50 µL of 10^6 CFU/mL bacterial cells were treated with peptide previously incubated at 40, 60, 80, and 100 °C for 1 h. The peptide activity was reported as per the standard MIC and MBC protocols.
# [15] = test system: MDR A. baumannii 1019; test: Fractional inhibitory concentration (FIC) index assay; assay type: cell-based, Acinetobacter baumannii; details: strain 1019
# Experimental: (§2) A 2-fold dilution of peptide in 50 µL of media was performed along the vertical axis of a 96-well plate. Similarly, 50 µL of the next drug was diluted 2-fold along the horizontal axis. Next, 50 µL of […] was added, and the standard MIC protocol was performed. The FIC index was calculated according to the following formula:FICI = FIC A + FIC B where FIC A is MIC A & B combined/MIC A and FIC B is MIC A & B combined/[…].
# [16] = test system: MDR A. baumannii 1033; test: as above; assay type: cell-based, Acinetobacter baumannii; details: strain 1033
# Experimental: as §2
# [17] = test system: MDR A. baumannii 14B001; test: as above; assay type: cell-based, Acinetobacter baumannii; details: strain 14B001
# Experimental: as §2
# [18] = test system: MDR A. baumannii 1607; test: as above; assay type: cell-based, Acinetobacter baumannii; details: strain 1607
# Experimental: as §2
# [19] = test system: MDR A. baumannii 1702; test: as above; assay type: cell-based, Acinetobacter baumannii; details: strain 1702
# Experimental: as §2
# [20] = test system: MDR A. baumannii 2088; test: as above; assay type: cell-based, Acinetobacter baumannii; details: strain 2088
# Experimental: as §2
# [21] = test system: MDR A. baumannii 2962; test: as above; assay type: cell-based, Acinetobacter baumannii; details: strain 2962
# Experimental: as §2
# [22] = test system: MDR A. baumannii 2982; test: as above; assay type: cell-based, Acinetobacter baumannii; details: strain 2982
# Experimental: as §2
# [23] = test system: MDR A. baumannii 2997; test: as above; assay type: cell-based, Acinetobacter baumannii; details: strain 2997
# Experimental: as §2
# [24] = test system: MDR A. baumannii 2998; test: as above; assay type: cell-based, Acinetobacter baumannii; details: strain 2998
# Experimental: as §2
# [25] = test system: MDR A. baumannii 3618; test: as above; assay type: cell-based, Acinetobacter baumannii; details: strain 3618
# Experimental: as §2
# [26] = test system: MDR A. baumannii 921; test: as above; assay type: cell-based, Acinetobacter baumannii; details: strain 921
# Experimental: as §2
# [27] = test system: A. baumannii (10591); test: Induced resistance (serial passage) assay; assay type: cell-based, Acinetobacter baumannii; details: 15 cycles, from subinhibitory wells
# Experimental: A total of 50 µL of 10^6 CFU/mL bacterial cells were treated with different concentrations of peptide. Bacterial cells from subinhibitory wells were subcultured by passaging for 15 cycles, followed by testing their MIC values. The fold change in MIC was reported in comparison with starting MIC values.
# [28] = test system: A. baumannii 10591; test: Biofilm rupture assay; assay type: cell-based, Acinetobacter baumannii; details: at the lowest concentration (25 µg/mL)
# Experimental: For the biofilm inhibition assay, 106 bacterial cells were treated with peptide at various concentrations in MHB media containing 0.2% glucose for 24 h at 37 °C in 96-well plates. The wells were then washed with PBS, treated with 100% methanol for 15 min, and the washes were discarded. Crystal violet solution (0.02%) was added to the dry plates and incubated for 30 min. The wells were then washed and treated with 33% acetic acid, followed by detection at 595 nm. For the biofilm rupture assay, 106 bacterial cells were grown overnight. The residual liquid was discarded, followed by washing with PBS. Next, 100 µL of peptide at different concentrations was added as estimated according to the biofilm inhibition assay.
# [29] = cited from earlier work
# Text: A pair of test peptides, TP2-5 and TP2-6, were selected from a previous design based on tilapia piscidin 2 (TP2). […] Both TP2-5 and TP2-6 are nonhaemolytic and noncytotoxic an ...
# [30] = Acinetobacter baumannii, media containing 50% human serum, read-out: MBC
# [31] = Acinetobacter baumannii, drug alone, two experiments in triplicate
compound,measurement,setting,value
"C[C@@H](O)[C@H]1C(=O)N2C(C(=O)O)=C(S[C@@H]3CN[C@H](C(=O)N(C)C)C3)[C@H](C)[C@H]12 [Meropenem, meropenem]",MBC,[1]; media containing 5% lung surfactant,1.56 µg/mL
same,MIC,"[1]; Acinetobacter baumannii, 10591",1.56 µg/mL
same,MBC,[1]; [30],1.56 µg/mL
same,MBC,[2]; [30],> 100 µg/mL
same,MIC,"[2]; Acinetobacter baumannii, media containing 50% human serum, read-out: MIC",> 100 µg/mL
same,MBC,[2]; normal media,>100 µg/mL
same,MIC,[2]; normal media,>100 µg/mL
same,MBC,[3],25 µg/mL
same,MIC,[3],25 µg/mL
same,MBC,[4],100 µg/mL
same,MIC,[4],50 µg/mL
same,MBC,[5],50 µg/mL
same,MIC,[5],50 µg/mL
same,MBC,[6],12.5 µg/mL
same,MBC,[7],> 100 µg/mL
same,MIC,[7],> 100 µg/mL
same,MBC,[8],50 µg/mL
same,MIC,[8],50 µg/mL
same,MBC,[9],> 100 µg/mL
same,MIC,[9],> 100 µg/mL
same,MBC,[10],50 to 100 µg/mL
same,MIC,[10],50 to 100 µg/mL
same,MBC,[11],> 100 µg/mL
same,MIC,[11],> 100 µg/mL
same,MBC,[12],50 to 100 µg/mL
same,MIC,[12],50 to 100 µg/mL
same,MBC,[13],> 100 µg/mL
same,MIC,[13],100 µg/mL
same,MIC,[14]; Acinetobacter baumannii,1.56 µg/mL
same,MBC,"[14]; Acinetobacter baumannii, agent incubated at 40 °C for 1 h prior to the assay, triplicate, two experiments",1.56 µg/mL
same,MBC,"[14]; Acinetobacter baumannii, agent incubated at 60 °C for 1 h prior to the assay, triplicate, two experiments",1.56 µg/mL
same,MBC,"[14]; Acinetobacter baumannii, agent incubated at 80 °C for 1 h prior to the assay, triplicate, two experiments",3.12 µg/mL
same,MIC,"[14]; Acinetobacter baumannii, agent incubated at 80 °C for 1 h prior to the assay, triplicate, two experiments, read-out: MIC",3.12 µg/mL
same,MBC,"[14]; Acinetobacter baumannii, agent incubated at 100 °C for 1 h prior to the assay, triplicate, two experiments",50 µg/mL
same,MIC,"[14]; Acinetobacter baumannii, agent incubated at 100 °C for 1 h prior to the assay, triplicate, two experiments, read-out: MIC",50 µg/mL
same,MIC,"[14]; agent incubated at 60 °C for 1 h prior to the assay, triplicate, two experiments",1.56 µg/mL
same,MIC,[15]; [31],25 µg/mL
same,MIC in Combination,[15]; TP2-5 combined with meropenem,12.5 µg/mL
same,MIC in Combination,[15]; TP2-6 combined with meropenem,12.5 µg/mL
same,MIC,[16]; [31],50 µg/mL
same,MIC in Combination,[16]; TP2-5 combined with meropenem,50 µg/mL
same,MIC in Combination,[16]; TP2-6 combined with meropenem,25 µg/mL
same,MIC,[17]; [31],400 µg/mL
same,MIC in Combination,[17]; TP2-5 combined with meropenem,200 µg/mL
same,MIC in Combination,[17]; TP2-6 combined with meropenem,200 µg/mL
same,MIC,[18]; [31],25 µg/mL
same,MIC in Combination,[18]; TP2-5 combined with meropenem,25 µg/mL
same,MIC in Combination,[18]; TP2-6 combined with meropenem,25 µg/mL
same,MIC,[19]; [31],12.5 µg/mL
same,MIC in Combination,[19]; TP2-5 combined with meropenem,12.5 µg/mL
same,MIC in Combination,[19]; TP2-6 combined with meropenem,1.56 µg/mL
same,MIC,[20]; [31],200 µg/mL
same,MIC in Combination,[20]; TP2-5 combined with meropenem,100 µg/mL
same,MIC in Combination,[20]; TP2-6 combined with meropenem,100 µg/mL
same,MIC,[21]; [31],50 µg/mL
same,MIC in Combination,[21]; TP2-5 combined with meropenem,25 µg/mL
same,MIC in Combination,[21]; TP2-6 combined with meropenem,25 µg/mL
same,MIC,[22]; [31],100 µg/mL
same,MIC in Combination,[22]; TP2-5 combined with meropenem,100 µg/mL
same,MIC in Combination,[22]; TP2-6 combined with meropenem,100 µg/mL
same,MIC,[23]; [31],100 µg/mL
same,MIC in Combination,[23]; TP2-5 combined with meropenem,50 µg/mL
same,MIC in Combination,"[23]; TP2-6 combined with meropenem, first printed pair of the cells (before the slash)",50 µg/mL
same,MIC in Combination,"[23]; TP2-6 combined with meropenem, second printed pair of the cells (after the slash)",25 µg/mL
same,MIC,[24]; [31],200 µg/mL
same,MIC in Combination,[24]; TP2-5 combined with meropenem,200 µg/mL
same,MIC in Combination,[24]; TP2-6 combined with meropenem,100 µg/mL
same,MIC,[25]; [31],100 µg/mL
same,MIC in Combination,[25]; TP2-5 combined with meropenem,50 µg/mL
same,MIC in Combination,[25]; TP2-6 combined with meropenem,25 µg/mL
same,MIC,[26]; [31],100 µg/mL
same,MIC in Combination,[26]; TP2-5 combined with meropenem,100 µg/mL
same,MIC in Combination,[26]; TP2-6 combined with meropenem,50 µg/mL
same,increase in MIC versus the initial MIC value (fold),[27],up to 16 fold
same,biofilm rupture,[28],nonsignificant biofilm rupture
"GECIWDAIFHGAKHFLHRLVNP [TP2, tilapia piscidin 2]",antimicrobial activity,[29],without antimicrobial activity
same,net positive charge,[29],negligible or no net positive charge

# Reference: paper PMC8875074, “Development of Bactericidal Peptides against Multidrug-Resistant Acinetobacter baumannii with Enhanced Stability and Low Toxicity” (International Journal of Molecular Sciences, 2022)
